Measured values reported in patent US20060229302A1, “Tricyclic indole derivatives and their use in the treatment of alzheimer's disease” (priority 2003, published 2006).
Structures can show the parent of a compound that is named as a salt.

Molecular target: Asp-2 (Homo sapiens, UniProt P56817)
Test: Asp-2 inhibitory assay
Format: biochemical
Conditions: FAM-[[…]]-TAMRA substrate, pH 4.5, 1 h room temperature; read-out: inhibition in the Asp-2 inhibitory assay
Procedure: (I) Asp-2 Inhibitory Assay
For each compound being assayed, in a 384 well plate, is added:
This is prepared by diluting 2 ml of a 2 mM DMSO solution of the substrate into 400 ml of buffer (100 mM Sodium acetate pH=4.5, 1 l Milli-Q water, 0.06% Triton X-100 (0.5 ml/l), pH adjusted to 4.5 using glacial acetic acid).
c) 10 μl enzyme solution. This is prepared by diluting 16 ml of a 500 nM enzyme solution into 384 ml of buffer (prepared as above).
Blank wells (enzyme solution replaced by buffer) are included as controls on each plate.

Asp-2, sequence (P56817 46-501): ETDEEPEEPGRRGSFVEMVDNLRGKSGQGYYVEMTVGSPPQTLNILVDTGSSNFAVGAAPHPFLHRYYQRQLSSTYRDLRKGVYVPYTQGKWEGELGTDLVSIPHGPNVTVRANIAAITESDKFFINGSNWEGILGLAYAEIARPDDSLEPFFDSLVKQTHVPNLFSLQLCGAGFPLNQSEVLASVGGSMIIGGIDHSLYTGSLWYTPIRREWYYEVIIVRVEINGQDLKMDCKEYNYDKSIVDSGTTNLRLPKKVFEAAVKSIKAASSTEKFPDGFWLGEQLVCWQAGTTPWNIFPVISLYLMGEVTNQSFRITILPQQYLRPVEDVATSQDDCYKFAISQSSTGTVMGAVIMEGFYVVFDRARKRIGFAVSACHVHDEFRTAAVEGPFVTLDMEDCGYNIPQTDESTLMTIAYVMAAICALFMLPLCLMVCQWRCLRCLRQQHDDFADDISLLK

SMILES | IC50 [nM]
CCc1cn2c3c(cc(C(=O)N[C@@H](Cc4cc(F)cc(F)c4)[C@H](O)CNC4CC4)cc13)N(C)S(=O)(=O)CC2 [Example E39, N-{(1S,2R)-3-(Cyclopropylamino)-1-[(3,5-difluorophenyl)methyl]-2-hydroxypropyl}-7-ethyl-1-methyl-3,4-dihydro-1H-[1,2,5]thiadiazepino[3,4,5-hi]indole-9-carboxamide 2,2-dioxide formate salt] | < 1000
CCCc1cn2c3c(cc(C(=O)N[C@@H](Cc4ccccc4)[C@H](O)CNCc4cccc(C(F)(F)F)c4)cc13)N(C)S(=O)(=O)CC2 [Example E44, N-[(1S,2R)-2-Hydroxy-1-(phenylmethyl)-3-({[3-(trifluoromethyl)phenyl]methyl}amino)propyl]-1-methyl-7-propyl-3,4-dihydro-1H-[1,2,5]thiadiazepino[3,4,5-hi]indole-9-carboxamide 2,2-dioxide formate salt] | < 1000
CCCc1cn2c3c(cc(C(=O)N[C@@H](Cc4ccccc4)[C@H](O)CNCc4cnn(CC)c4)cc13)N(C)S(=O)(=O)CC2 [Example E47, N-[(1S,2R)-3-{[(1-Ethyl-1H-pyrazol-4-yl)methyl]amino}-2-hydroxy-1-(phenylmethyl)propyl]-1-methyl-7-propyl-3,4-dihydro-1H-[1,2,5]thiadiazepino[3,4,5-hi]indole-9-carboxamide 2,2-dioxide formate salt] | < 1000
CCCc1cn2c3c(cc(C(=O)N[C@@H](Cc4ccccc4)[C@H](O)CNCc4cccc(C(F)(F)F)c4)cc13)N(CC)S(=O)(=O)CC2 [Example E48, 1-Ethyl-N-[(1S,2R)-2-hydroxy-1-(phenylmethyl)-3-({[3-(trifluoromethyl)phenyl]methyl}amino)propyl]-7-propyl-3,4-dihydro-1H-[1,2,5]thiadiazepino[3,4,5-hi]indole-9-carboxamide 2,2-dioxide formate salt] | < 1000
CCCc1cn2c3c(cc(C(=O)N[C@@H](Cc4ccccc4)[C@H](O)CNCc4cnn(CC)c4)cc13)N(CC)S(=O)(=O)CC2 [Example E51, 1-Ethyl-N-[(1S,2R)-3-{[(1-ethyl-1H-pyrazol-4-yl)methyl]amino}-2-hydroxy-1-(phenylmethyl)propyl]-7-propyl-3,4-dihydro-1H-[1,2,5]thiadiazepino[3,4,5-hi]indole-9-carboxamide 2,2-dioxide formate salt] | < 1000
CCc1cn2c3c(cc(C(=O)N[C@@H](Cc4ccccc4)[C@H](O)CNCc4cccc(OC(F)(F)F)c4)cc13)N(C)S(=O)(=O)CC2 [Example E67, 7-Ethyl-N-{(1S,2R)-2-hydroxy-1-(phenylmethyl)-3-[({3-[(trifluoromethyl)oxy]phenyl}methyl)amino]propyl}-1-methyl 3,4-dihydro-1H-[1,2,5]thiadiazepino[3,4,5-hi]indole-9-carboxamide 2,2-dioxide formate salt] | < 1000
CCc1cn2c3c(cc(C(=O)N[C@@H](Cc4ccccc4)[C@H](O)CNCc4cccc(C)c4)cc13)N(C)S(=O)(=O)CC2 [Example E70, 7-Ethyl-N-[(1S,2R)-2-hydroxy-3-{[(3-methylphenyl)methyl]amino}-1-(phenylmethyl)propyl]-1-methyl-3,4-dihydro-1H-[1,2,5]thiadiazepino[3,4,5-hi]indole-9-carboxamide 2,2-dioxide formate salt] | < 1000
CCc1cn2c3c(cc(C(=O)N[C@@H](Cc4ccccc4)[C@H](O)CN[C@H]4CCc5ccccc54)cc13)N(C)S(=O)(=O)CC2 [Example E72, N-[(1S,2R)-3-[(1S)-2,3-Dihydro-1H-inden-1-ylamino]-2-hydroxy-1-(phenylmethyl)propyl]-7-ethyl-1-methyl-3,4-dihydro-1H-[1,2,5]thiadiazepino[3,4,5-hi]indole-9-carboxamide 2,2-dioxide formate salt] | < 1000
CCc1cn2c3c(cc(C(=O)N[C@@H](Cc4ccccc4)[C@H](O)CNCc4cnn(CC(F)(F)F)c4)cc13)N(C)S(=O)(=O)CC2 [Example E74, 7-Ethyl-N-[(1S,2R)-2-hydroxy-1-(phenylmethyl)-3-({[1-(2,2,2-trifluoroethyl)-1H-pyrazol-4-yl]methyl}amino)propyl]-1-methyl-3,4-dihydro-1H-[1,2,5]thiadiazepino[3,4,5-hi]indole-9-carboxamide 2,2-dioxide formate salt] | < 1000
CCc1cn2c3c(cc(C(=O)N[C@@H](Cc4ccccc4)[C@H](O)CNCc4cccc(C(F)(F)F)c4)cc13)N(C)S(=O)(=O)C2C (stereo partly drawn) [Example E78, 6-Ethyl-N-[(1S,2R)-2-hydroxy-1-(phenylmethyl)-3-({[3-(trifluoromethyl)phenyl]methyl}amino)propyl]-1,3dimethyl-1H-[1,2,5]thiadiazino[3,4,5-hi]indole-8-carboxamide 2,2-dioxide formate salt] | < 1000
CCc1cn2c3c(cc(C(=O)N[C@@H](Cc4ccccc4)[C@H](O)CNC(C)(C)c4cccc(C(F)(F)F)c4)cc13)N(C)S(=O)(=O)C2 [Example E79, 6-Ethyl-N-[(1S,2R)-2-hydroxy-3-({1-methyl-1-[3-(trifluoromethyl)phenyl]ethyl}amino)-1-(phenylmethyl)propyl]-1-methyl-1H-[1,2,5]thiadiazino[3,4,5-hi]indole-8-carboxamide 2,2-dioxide formate salt] | < 1000
CCc1cn2c3c(cc(C(=O)N[C@@H](Cc4ccccc4)[C@H](O)CNCc4cccc(C(F)(F)F)c4)cc13)N(C)S(=O)(=O)C2 [Example E83, 6-Ethyl-N-[(1S,2R)-2-hydroxy-1-(phenylmethyl)-3-({[3-(trifluoromethyl)phenyl]methyl}amino)propyl]-1-methyl-1H-[1,2,5]thiadiazino[3,4,5-hi]indole-8-carboxamide 2,2-dioxide formate salt] | < 1000
CCc1cn2c3c(cc(C(=O)N[C@@H](Cc4ccccc4)[C@H](O)CNCc4cncc(C(=O)NC)c4)cc13)N(C)S(=O)(=O)CC2 [Example E97, 7-Ethyl-N-[(1S,2R)-2 hydroxy-3-[({5-[(methylamino)carbonyl]-3-pyridinyl}methyl)amino]-1-(phenylmethyl)propyl]-1-methyl-3,4-dihydro-1H-[1,2,5]thiadiazepino[3,4,5-hi]indole-9-carboxamide 2,2-dioxide formate salt] | < 1000
CCc1cc(CNC[C@@H](O)[C@H](Cc2ccccc2)NC(=O)c2cc3c4c(c2)c(CC)cn4CCS(=O)(=O)N3C)on1 [Example E104, 7-Ethyl-N-[(1S,2R)-3-{[(3-ethyl-5-isoxazolyl)methyl]amino}-2-hydroxy-1-(phenylmethyl)propyl]-1-methyl-3,4-dihydro-1H-[1,2,5]thiadiazepino[3,4,5-hi]indole-9-carboxamide 2,2-dioxide] | < 1000
CCc1cn2c3c(cc(C(=O)N[C@@H](Cc4ccccc4)[C@H](O)CN[C@@H](C)C(=O)NC4CCCCC4)cc13)N(C)S(=O)(=O)CC2 [Example E105, N-[(1S,2R)-3-{[(1S)-2-(Cyclohexylamino)-1-methyl-2-oxoethyl]amino}-2-hydroxy-1-(phenylmethyl)propyl]-7-ethyl-1-methyl-3,4-dihydro-1H-[1,2,5]thiadiazepino[3,4,5-hi]indole-9-carboxamide 2,2-dioxide] | < 1000
CCc1cn2c3c(cc(C(=O)N[C@@H](Cc4ccccc4)[C@H](O)CNC4CCC(F)(F)CC4)cc13)N(C)S(=O)(=O)CC2 [Example E106, N-[(1S,2R)-3-[(4,4-Difluorocyclohexyl)amino]-2-hydroxy-1-(phenylmethyl)propyl]-7-ethyl-1-methyl-3,4-dihydro-1H-[1,2,5]thiadiazepino[3,4,5-hi]indole-9-carboxamide 2,2-dioxide formate salt] | < 1000
